The values that follow come from US20240199578A1, “SOLID STATE FORMS OF ZAVEGEPANT AND PROCESS FOR PREPARATION THEREOF” (TEVA CZECH INDUSTRIES S.R.O, priority 2021, published 2024).

Molecules are shown by their SMILES.

The nature of the data set: Stability to polymorphic conversion (heating, grinding, high relative humidity). Type of data set: physicochemical. Conditions: when heated, during grinding and/or high relative humidity.

For the compound `Cc1cc(C[C@@H](NC(=O)N2CCC(c3cc4ccccc4[nH]c3=O)CC2)C(=O)N2CCN(C3CCN(C)CC3)CC2)cc2cn[nH]c12` [Form B], the “stability to polymorphic conversion” value is on record as “particularly stable to polymorphic conversion”.
